What follows are compounds tested on Bacillus megaterium (assay: Phosphate solubilization assay with Bacillus megaterium (liquid NBRIP, malachite green)). Details: 25 ug/mL (solvent 50% acetone), NBRIP, 72 h.
Format: cell-based
Method: In some aspects, a compound disclosed herein, e.g., AB09, stimulates bacterial phosphate solubilization activity. […] Cultures of B. megaterium were grown in media containing only insoluble phosphorus with and without a compound such as AB09. At the start of the experiment, there was no detectable difference of orthophosphate levels in the growth media alone and media supplemented with B. megaterium and/or AB09. Orthophosphate was measured after 72 hours of bacterial growth. Specifically, A 5 mL culture of B. megaterium was seeded from a single colony into Nutrient Broth (NB) and grown overnight in a 30° C. shaker. The cell pellet was collected by centrifugation, washed twice and resuspended in water. The concentration of B. megaterium was measured using a Nanodrop OD600 reading. B. megaterium was inoculated into liquid NBRIP media, which contains insoluble tricalcium phosphate as its sole phosphorus source. The final concentration of B. megaterium in the NBRIP media was OD600=0.02 ([…]). NBRIP media was supplemented with ML in a 1% DMSO solution to a final concentration of 100 ug/ML or 1% DMSO (both were filter sterilized through a 0.2 uM filter). Cell counts at the start of the experiment (0 hours) and at 72 hours post inoculation were measured using dilution plating. At the experiment start and after 72 hours of growth, 1 mL of culture was collected from the culture tubes. The supernatant was collected by centrifugation (5 min at 13,000 rpm). The cleared supernatant was diluted […] in molecular grade water and used for orthophosphate analysis. The remaining 4 mL of supernatant were collected by centrifugation for pH readings. Orthophosphate was measured using the malachite-green phosphate method (BioAssay Systems Malachite Green Phosphate Assay Kit Catalog No: POMG-25H). Briefly, the sample is mixed with a solution of Malachite Green and molybdate, which forms a green complex with free orthophosphate from the sample. Data are quantified on a plate reader at 620 nm. Unknown samples were run with a standard curve of known concentrations of orthophosphate. […] Phosphate solubilization in NBRIP culture media is shown at experiment start (0 h) and after 72 hours of shaking at 30° C. The left axis corresponds to box plots and whisker plots of the concentration of solubilized phosphate in the bacterial supernatant. The right axis corresponds to the pH of the supernatant. n=7 culture tubes for each B. megaterium with and without ML, and n=3 culture tubes for no bacteria with and without AB09. The malachite green phosphate assay was performed in triplicate. […] In some instances, disclosed herein are experimental culture tubes of B. megaterium growing in NBRIP without ML (AB09; leftmost two tubes) and with 100 ug/mL ML (right three tubes).
A strain of Bacillus megaterium (B. megaterium) was isolated from Iowa field soil and confirmed its ability to solubilize phosphorus by observing a cleared zone (or halo) around B. megaterium colonies when grown on solid media (NBRIP+Agar) containing only in insoluble form of phosphorus, Ca3(PO4)2. Cultures of B. megaterium were then grown in liquid NBRIP (containing only insoluble Ca3(PO4)2) with and without AB09. The growth media supernatant was analyzed for orthophosphate at the start of the experiment (0 h) and after 72 hours of growth by the malachite green quantification method.
FIG. 1A illustrates phosphate solubilization in NBRIP culture media at experiment start (0 h) and after 72 hours of shaking at 30° C. The left axis corresponds to box plots and whisker plots of the concentration of available phosphate (orthophosphate) in the bacterial supernatant. […] The malachite green phosphate assay was performed in triplicate. FIG. 1B illustrates an example of experimental culture tubes of B. megaterium growing in NBRIP without AB09 (leftmost two tubes) and with 100 ug/mL AB09 (right three tubes). […]

Row | SMILES | phosphate solubilization effect compared to the original AB09 molecule
1 | CC1=C(C)C(Oc2c(C)occc2=O)OC1=O (stereo not drawn) [SA-002] | enhanced phosphate solubilization effect
2 | CC1=CC(Oc2cc(C)oc(=O)c2)OC1=O (stereo not drawn) [SA-004] | enhanced phosphate solubilization effect
3 | CCc1occc(=O)c1OC1C=C(C)C(=O)O1 (stereo not drawn) [SA-005] | did not differ from AB09
